Assay results as given in patent US10772807B2, “Lipid microcapsules preferably comprising a retinoid, and composition containing same, method for the production thereof, and use of same in dermatology” (GALDERMA RESEARCH & DEVELOPMENT, priority 2013, dated 2020).

Key:
[1] = Chemical stability of Trifarotene in oily phases (HPLC-UV); format: physicochemical
Protocol: The stability of the active agent was evaluated by liquid chromatography coupled to a UV detector (HPLC-UV).

[2] = Maximum solubility of Trifarotene in various oily phases; format: physicochemical
[3] = in Caprylic/capric acid triglycerides (Miglyol ® 812N)
[4] = in Diisopropyl adipate (Schercemol Dia Ester)
[5] = in Macrogol oleate (Labrafil ® M1944CS)
[6] = in Octyldodecanol (Eutanol ® G)
[7] = in PPG-15 stearyl ether (Arlamol PS11E-LQ)
[8] = in Propylene glycol dicaprylate/dicaprate (Myritol ® PC)
[9] = in Propylene glycol monolaurate (Lauroglycol ® FCC)

CC(C)(C)c1cc(-c2cc(-c3ccc(C(=O)O)cc3)ccc2OCCO)ccc1N1CCCC1 [Trifarotene, 3″-tert-butyl-4′-(2-hydroxyethoxy)-4″-pyrrolidin-1-yl-[1,1′;3′,1″]-terphenyl-4-carboxylic acid]
Stability [1, 3]: 6 months AT/40 °C | Stability [1, 4]: 6 months AT/40 °C | Stability [1, 5]: 6 months AT/40 °C | Stability [1, 6]: Unstable | Stability [1, 7]: 6 months AT/40 °C | Stability [1, 8]: Unstable | Stability ([1]; in Propylene glycol monocaprylate (Capryol ® 90), AT = ambient temperature): 6 months AT/40 °C | Stability [1, 9]: 6 months AT/40 °C | Stability ([1]; in Sweet almond oil): 6 months AT/40 °C | Maximum solubility ([2]; in Alkyl (C12-15) benzoate (Crodamol AB)): 0.026 % w/w | Maximum solubility [2, 3]: 0.019 % w/w | Maximum solubility [2, 4]: 0.297 % w/w | Maximum solubility [2, 5]: 0.156 % w/w | Maximum solubility ([2]; in Mineral oil): 0.0001 % w/w | Maximum solubility [2, 6]: 0.137 % w/w | Maximum solubility [2, 7]: 0.292 % w/w | Maximum solubility [2, 8]: 0.069 % w/w | Maximum solubility ([2]; in Propylene glycol monocaprylate (Capryol ® 90)): 0.802 % w/w | Maximum solubility [2, 9]: 0.296 % w/w | Maximum solubility ([2]; in Sweet almond oil): 0.011 % w/w
